These results are taken from ChEMBL document CHEMBL1152383, “Design and synthesis of indole, 2,3-dihydro-indole, and 3,4-dihydro-2H-quinoline-1-carbothioic acid amide derivatives as novel HCV inhibitors” (Bioorg Med Chem Lett, 2009).

The subject of one series is Hepatitis C virus. Description: Antiviral activity against HCV 1b infected in human HuH7 cells assessed as inhibition of viral sub-genomic replication by EG(delta-4AB)SEAP reporter protein assay. Format: functional, organism-based, Hepacivirus hominis. The following applies: genotype 1b, Huh-7.
Series [1] is described as follows: Selectivity index, ratio of CC50 for human HuH7 cells to EC50 for HCV 1b. On the set-up: species or system Huh-7.
A short description of series [2]: Cytotoxicity against human HuH7 cells. Format: cell-based, Huh-7.

Turning to `NC(=S)Nc1cccc(Oc2ccccc2)c1`, the EC50 in the series with Hepatitis C virus was determined as 0.49 µM.

As for `N#Cc1cccc(C(=O)NC(=S)N2CCc3c(OCCCCCOc4ccc(Cl)cc4)cccc32)c1`, in series [1], the “Ratio CC50/EC50” value is 17. Besides, the EC50 in the series on Hepatitis C virus came out at 0.57 µM. Further, the cytotoxic concentration (CC50) in series [2] amounted to 9.75 µM.

Regarding `N#Cc1ccc(C(=O)NC(=S)N2CCc3c(OCCCCCOc4ccc(Cl)cc4)cccc32)cc1`, in series [1], the “Ratio CC50/EC50” value is over 98. For the same compound, in the series with Hepatitis C virus, the EC50 is 0.51 µM. In addition, the CC50 in series [2] was over 50 µM.

In the case of `Cc1ccc(C(=O)NC(=S)N2CCc3c(OCCCCCOc4ccc(Cl)cc4)cccc32)cc1`, the “Ratio CC50/EC50” value in series [1] is on record as over 26. In addition, the EC50 in the series with Hepatitis C virus is 1.94 µM. In series [2], this compound had a CC50 of over 50 µM.

As for `S=C(NC(=S)N1CCc2c(OCCCCCOc3ccc(Cl)cc3)cccc21)Oc1ccccc1`, the “Ratio CC50/EC50” value in series [1] is recorded as over 1. In addition, the EC50 in the series with Hepatitis C virus was over 50 µM. Also, in series [2], the CC50 is over 50 µM.

Consider `CN(C)c1ccc(C(=O)NC(=S)N2CCc3c(OCCCCCOc4ccc(Cl)cc4)cccc32)cc1`, for which the “Ratio CC50/EC50” value in series [1] is recorded as over 1. The EC50 in the series with Hepatitis C virus was determined as 42.4 µM. In series [2], this compound yielded a CC50 of over 50 µM.

In the case of `O=C(NC(=S)N1CCc2cc(OCc3ccccc3)ccc21)c1ccccc1`, in series [1], the “Ratio CC50/EC50” value was 9. Further, the EC50 in the series with Hepatitis C virus was 4.81 µM. This compound gave a CC50 in series [2] of 45.2 µM.

Take `O=C(NC(=S)N1CCc2c(OCCCCCOc3ccc(Cl)cc3)cccc21)c1cccnc1`: the “Ratio CC50/EC50” value in series [1] turned out to be 5. Further, the EC50 in the series with Hepatitis C virus was 2.37 µM. Further, the midpoint of cytotoxicity in series [2], the CC50, lay at 11.1 µM.

Turning to `O=C(NC(=S)N1CCc2c(OCCCCCOc3ccc(Cl)cc3)cccc21)c1ccoc1`, in series [1], the “Ratio CC50/EC50” value came out at 12. For the same compound, the EC50 in the series with Hepatitis C virus worked out at 1.72 µM. The same compound came in with a CC50 in series [2] of 20.1 µM.

In the case of `O=C(NC(=S)N1CCc2c(OCCCCCOc3ccc(Cl)cc3)cccc21)c1cc2ccccc2s1`, the “Ratio CC50/EC50” value in series [1] is on record as over 45. Further, the EC50 in the series on Hepatitis C virus is 1.1 µM. Further, in series [2], the CC50 is over 50 µM.

For the compound `NC(=S)N1CCCc2c(OCCCCCOc3cccc4ccccc34)cccc21`, the “Ratio CC50/EC50” value in series [1] is listed as over 1. Also, the EC50 in the series on Hepatitis C virus is over 50 µM. The compound further showed a CC50 in series [2] of over 50 µM.

Regarding `COc1ccc(C(=O)NC(=S)N2CCc3c(OCCCCCOc4ccc(Cl)cc4)cccc32)cc1`, the “Ratio CC50/EC50” value in series [1] turned out to be 17. In addition, the EC50 in the series with Hepatitis C virus came to 2.02 µM. Further, half-maximal cytotoxicity in series [2] (CC50) was put at 34.4 µM.

As for `O=C(NC(=S)N1CCc2c(OCCCCCOc3ccc(Cl)cc3)cccc21)c1ccc(Cl)cc1`, in series [1], the “Ratio CC50/EC50” value amounted to 31. For the same compound, the EC50 in the series on Hepatitis C virus was 0.69 µM. Also, the CC50 in series [2] was 21.7 µM.

For the compound `O=C(NC(=S)N1CCc2c(OCCCCCOc3ccc(Cl)cc3)cccc21)Oc1ccccc1`, the “Ratio CC50/EC50” value in series [1] was over 1. Further, the EC50 in the series on Hepatitis C virus was over 50 µM. The CC50 in series [2] is over 50 µM.

On to `O=C(NC(=S)N1CCc2ccc(OCc3ccccc3)cc21)c1ccccc1`, for which the “Ratio CC50/EC50” value in series [1] came out at 9. For the same compound, the EC50 with Hepatitis C virus is 5.05 µM. For the same compound, the CC50 in series [2] is 43.8 µM.

For `O=C(NC(=S)N1CCc2c(OCCCCCOc3ccc(Cl)cc3)cccc21)c1ccccc1[N+](=O)[O-]`, in series [1], the “Ratio CC50/EC50” value is on record as over 30. The EC50 in the series on Hepatitis C virus came out at 1.65 µM. Further, the CC50 in series [2] is over 50 µM.

As to `O=C(NC(=S)N1CCc2c(OCCCCCOc3ccc(Cl)cc3)cccc21)c1ccno1`, the “Ratio CC50/EC50” value in series [1] worked out at 18. For the same compound, the EC50 with Hepatitis C virus was found to be 2.06 µM. Moreover, in series [2], the CC50 is 37.1 µM.

With `O=C(NC(=S)N1CCc2c(OCCCCCOc3ccc(Cl)cc3)cccc21)c1cccs1`, the “Ratio CC50/EC50” value in series [1] amounted to 16. In the series with Hepatitis C virus, the EC50 turned out to be 0.66 µM. This compound also came in with a CC50 in series [2] of 10.7 µM.

Turning to `O=C(NC(=S)N1CCc2c(OCCCCCOc3ccc(Cl)cc3)cccc21)C1CCCCC1`, in series [1], the “Ratio CC50/EC50” value is given as over 1. In addition, the EC50 in the series with Hepatitis C virus was determined as 42.5 µM. Moreover, the CC50 in series [2] was over 50 µM.

On to `O=C(NC(=S)N1CCc2c(OCc3ccccc3)cccc21)c1ccccc1`, for which the “Ratio CC50/EC50” value in series [1] is over 16. For the same compound, the EC50 in the series with Hepatitis C virus amounted to 3.18 µM. This compound also registered a CC50 in series [2] of over 50 µM.

On to `CC(C)(C)c1ccc(C(=O)NC(=S)N2CCc3c(OCCCCCOc4ccc(Cl)cc4)cccc32)cc1`, for which the “Ratio CC50/EC50” value in series [1] was over 26. Further, the EC50 in the series with Hepatitis C virus stood at 1.95 µM. In series [2], this compound gave a CC50 of over 50 µM.

Regarding `O=C(NC(=S)N1CCc2c(OCCCCCOc3ccc(Cl)cc3)cccc21)c1ccc(Br)cc1`, in series [1], the “Ratio CC50/EC50” value came out at 33. Also, in the series on Hepatitis C virus, the EC50 is 0.88 µM. For the same compound, half-maximal cytotoxicity in series [2] (CC50) was put at 29.1 µM.

For the compound `O=C(NC(=S)N1CCc2c(OCCCCCOc3ccc(Cl)cc3)cccc21)c1cccc([N+](=O)[O-])c1`, the “Ratio CC50/EC50” value in series [1] is 21. In addition, in the series with Hepatitis C virus, the EC50 came out at 0.58 µM. The same compound returned a CC50 in series [2] of 12.1 µM.

Regarding `O=C(NC(=S)N1CCc2c(OCCCCCOc3ccc(Cl)cc3)cccc21)c1ccsc1`, the “Ratio CC50/EC50” value in series [1] is given as over 49. In addition, the EC50 with Hepatitis C virus is 1.02 µM. The compound also came in with a CC50 in series [2] of over 50 µM.

With `NC(=S)N1CCc2c(OCCCCCOc3ccc(Cl)cc3)cccc21`, in series [1], the “Ratio CC50/EC50” value is on record as over 11. Also, the EC50 in the series on Hepatitis C virus was 4.71 µM. In series [2], this compound had a CC50 of over 50 µM.

For `O=C(NC(=S)N1CCc2c(OCCCCCOc3ccc(Cl)cc3)cccc21)c1ccc([N+](=O)[O-])cc1`, the “Ratio CC50/EC50” value in series [1] is given as 19. In the series with Hepatitis C virus, the EC50 worked out at 0.72 µM. Moreover, the CC50 in series [2] came to 13.6 µM.

As for `NC(=S)n1ccc2c(OCCCCCOc3ccc(Cl)cc3)cccc21`, the “Ratio CC50/EC50” value in series [1] was 1. Besides, in the series with Hepatitis C virus, the EC50 came to 24.5 µM. Besides, it took 24.7 µM to reach half-maximal cytotoxicity in series [2] (CC50).

For `O=S(=O)(NC(=S)N1CCc2c(OCCCCCOc3ccc(Cl)cc3)cccc21)c1ccccc1`, the “Ratio CC50/EC50” value in series [1] is listed as over 1. Besides, the EC50 in the series on Hepatitis C virus is over 50 µM. In series [2], the CC50 was over 50 µM.

Consider `O=C(CCc1ccccc1)NC(=S)N1CCc2c(OCCCCCOc3ccc(Cl)cc3)cccc21`, for which, in series [1], the “Ratio CC50/EC50” value is listed as over 4. Also, the EC50 in the series on Hepatitis C virus is 13.4 µM. This compound also returned a CC50 in series [2] of over 50 µM.

In the case of `O=C(NC(=S)N1CCc2c(OCCCCCOc3ccc(Cl)cc3)cccc21)c1ccc2ccccc2c1`, in series [1], the “Ratio CC50/EC50” value is reported as over 23. Also, the EC50 with Hepatitis C virus turned out to be 2.16 µM. Besides, the CC50 in series [2] is over 50 µM.

For the compound `O=C(NC(=S)N1CCc2c(OCCCCCOc3ccc(Cl)cc3)cccc21)c1ccc(C(F)(F)F)cc1`, the “Ratio CC50/EC50” value in series [1] was determined as 27. For the same compound, the EC50 in the series with Hepatitis C virus is 1.23 µM. The compound also had a 50% cytotoxic concentration (CC50) in series [2] of 32.7 µM.

On to `O=C(NC(=S)N1CCc2c(OCCCCCOc3ccc(Cl)cc3)cccc21)c1ccccc1`, for which, in series [1], the Ratio CC50/EC50 was over 63. In addition, the EC50 in the series on Hepatitis C virus is 0.79 µM. The compound further came in with a CC50 in series [2] of over 50 µM.

Take `O=C(NC(=S)N1CCc2cccc(OCc3ccccc3)c21)c1ccccc1`: the “Ratio CC50/EC50” value in series [1] is given as over 1. Besides, in the series on Hepatitis C virus, the EC50 is over 50 µM. The same compound registered a cytotoxic concentration (CC50) in series [2] of over 50 µM.

Turning to `O=C(NC(=S)N1CCc2c(OCCCCCOc3ccc(Cl)cc3)cccc21)c1ccco1`, the “Ratio CC50/EC50” value in series [1] amounted to 8. The EC50 in the series on Hepatitis C virus worked out at 0.58 µM. Further, the CC50 in series [2] was found to be 4.62 µM.

As to `CCCC(=O)NC(=S)N1CCc2c(OCCCCCOc3ccc(Cl)cc3)cccc21`, the “Ratio CC50/EC50” value in series [1] came out at 2. Further, the concentration giving a half-maximal response (EC50) with Hepatitis C virus came out at 31.6 µM. This compound returned a CC50 in series [2] of over 50 µM.

With `O=C(NC(=S)N1CCc2c(OCCCCCOc3ccc(Cl)cc3)cccc21)c1ccc(F)cc1`, in series [1], the “Ratio CC50/EC50” value came out at 33. Further, the EC50 in the series with Hepatitis C virus was 0.95 µM. Moreover, the CC50 in series [2] is 31.1 µM.

As for `O=C(NC(=S)N1CCc2c(OCCCCCOc3ccc(Cl)cc3)cccc21)C1CCCC1`, the “Ratio CC50/EC50” value in series [1] is on record as over 2. Besides, in the series on Hepatitis C virus, the EC50 turned out to be 25.4 µM. The same compound had a CC50 in series [2] of over 50 µM.

Take `O=C(NC(=S)n1ccc2c(OCCCCCOc3ccc(Cl)cc3)cccc21)c1ccccc1`: the “Ratio CC50/EC50” value in series [1] was determined as 7. Besides, in the series with Hepatitis C virus, the EC50 came to 4.06 µM. In series [2], this compound had a CC50 of 29.5 µM.

In general, EC50 refers to the concentration at which the effect is half-maximal. The CC50 is the concentration at which the toxic effect on the cells reaches its halfway point. Read a low CC50 as harm at low concentration.
